Test system: aorta rings
Experiment: Vasorelaxant effect in vitro (phenylephrine-contracted rabbit aorta rings)
Design: species or system Rabbits
Details: Oryctolagus cuniculus, contraction induced by phenylephrine, 37° C., 0.1% DMSO, read-out: IC50 (concentration necessary to reduce the level of contraction by 50%)
Procedure: Rabbits are stunned by a blow to the back of the neck and are exsanguinated. The aorta is removed, freed of adherent tissue, divided into rings 1.5 mm wide and placed singly in 5 ml organ baths with carbogen-gassed Krebs-Henseleit solution of the following composition (in each case mM): NaCl: 119; KCl: 4.8; CaCl2×2H2O: 1; MgSO4×7H2O: 1.4; KH2PO4: 1.2; NaHCO3: 25; glucose: 10, under an initial tension at 37° C. The force of contraction is detected with Statham UC2 cells, amplified and digitized via A/D converters (DAS-1802 HC, Keithley Instruments Munich), and recorded in parallel on chart recorders. A contraction is induced by adding phenylephrine to the bath cumulatively in increasing concentration. After several control cycles, the substance to be investigated is added in each further run in increasing dosage each time, and the level of contraction is compared with the level of contraction achieved in the last preceding run. The concentration necessary to reduce the level of contraction by 50% (IC50) is calculated therefrom. The standard application volume is 5 μl, and the DMSO content in the bath solution corresponds to 0.1%.

IC50: 6.2 µM
Compound: Nc1nc(N)nc(-c2nn(Cc3ccccc3F)c3nccn23)n1 [Example 1, 6-[1-(2-Fluorobenzyl)-1H-imidazo[2,1-c][1,2,4]triazol-3-yl]-1,3,5-triazine-2,4-diamine]
